Reference: patent US20100152298A1, “Present invention relates to a treatment for the management of cancer more specially the use of Flutamide anti-androgen drugsa” (UNIVERSITY OF KUWAIT, priority 2008, published 2010)

System: androgen-independent prostate cancer PC-3 cells
Experiment: Growth, proliferation and viability of PC-3 cells treated with flutamide
Format: cell-based
Conditions: range of doses of flutamide

SMILES: CC(C)C(=O)Nc1ccc([N+](=O)[O-])c(C(F)(F)F)c1 [flutamide, Flutamide]
- inhibiting growth: 20-70%
